Patent US20040037837A1 (priority 2000, published 2004)

Assays:
[1] = system: HLA-A2 transgenic C57B1/6 mice; format: in vivo; details: subcutaneous peptides in IFA
[2] = system: autologous monocyte-derived macrophages infected with M. bovis BCG, M. tuberculosis or rVV expressing Ag85A; format: cell-based, human; details: label = peptide used to generate the STCL (or pulsed control peptide)
[3] = system: Uncultured PBMCs from HLA-A2 donors; format: cell-based, human
[4] = system: THP-1 cells pulsed with peptide; assay: 51Cr release cytotoxicity assay of peptide specific CD8+ T cells against peptide pulsed THP-1 cells; format: cell-based, human; details: 50:1 E:T ratio; label = peptide pulsed on targets; STCL after 2 weeks of stimulation

Sequence | peptide specific IFNγ producing T cells in the spleens ([1]; 7 days post second boost) | recognition and lysis of M. bovis BCG, M. tuberculosis and rVV85A infected macrophages by peptide specific CTLs [2] | mean number of IFN-γ sfc's enumerated from 5×10^5 PBMCs [3] | specific lysis of peptide pulsed THP-1 cells by P48-56 stimulated CD8^+ T cells [4] [%] | specific lysis of peptide pulsed THP-1 cells by P242-250 reactive CD8^+ T cells [4] | recognition of peptide with feeder cells from wild type C57B1/6 mice ([1]; 7 days post first boost, lymph node) | IFNγ response to peptide in the lymph node ([1]; 7 days post first boost, autologous feeders)
GLPVEYLQV (listed as Mycobacterium tuberculosis) [P48-56] | resulted in a P48-56 response | able to recognise and lyse | 27 | 76 | no significant lysis | – | –
KLIANNTRV (listed as Mycobacterium tuberculosis) [P242-250] | – | able to recognise and lyse | 22 | – | 79% | not recognised | a response to P242-250 was seen
